Test results from ChEMBL document CHEMBL3272143, “Synthesis of heteroaromatic potential beta-adrenergic antagonists by the glycidol route” (1978).

Experiments:
Format in all cases: functional
[1] = test system: Canis familiaris; test: Inhibition of isoproterenol-induced increase in heart rate in bilaterally vagotomized open chest mongrel dog model at 1.42 mg/kg, iv administered 10 to 20 mins prior to and following isoproterenol challenge; conditions: Canis lupus familiaris
[2] = test system: Canis familiaris; test: Inhibition of isoproterenol-induced decrease in diastolic blood pressure in bilaterally vagotomized open chest mongrel dog model at 4.58 mg/kg, iv administered 10 to 20 mins prior to and following isoproterenol challenge; conditions: Canis lupus familiaris, Artery
[3] = test system: Canis familiaris; test: Inhibition of isoproterenol-induced increase in heart rate in bilaterally vagotomized open chest mongrel dog model at 0.1 mg/kg, iv administered 10 to 20 mins prior to and following isoproterenol challenge; conditions: Canis lupus familiaris
[4] = test system: Canis familiaris; test: Inhibition of isoproterenol-induced decrease in diastolic blood pressure in bilaterally vagotomized open chest mongrel dog model at 14.58 mg/kg, iv administered 10 to 20 mins prior to and following isoproterenol challenge; conditions: Canis lupus familiaris, Artery
[5] = test system: Canis familiaris; test: Inhibition of isoproterenol-induced increase in heart rate in bilaterally vagotomized open chest mongrel dog model at 14.58 mg/kg, iv administered 10 to 20 mins prior to and following isoproterenol challenge; conditions: Canis lupus familiaris
[6] = test system: Canis familiaris; test: Inhibition of isoproterenol-induced decrease in diastolic blood pressure in bilaterally vagotomized open chest mongrel dog model at 1.42 mg/kg, iv administered 10 to 20 mins prior to and following isoproterenol challenge; conditions: Canis lupus familiaris, Artery
[7] = test system: Canis familiaris; test: Inhibition of isoproterenol-induced decrease in diastolic blood pressure in bilaterally vagotomized open chest mongrel dog model at 0.1 mg/kg, iv administered 10 to 20 mins prior to and following isoproterenol challenge; conditions: Canis lupus familiaris, Artery
[8] = test system: Canis familiaris; test: Inhibition of isoproterenol-induced increase in heart rate in iv dosed bilaterally vagotomized open chest mongrel dog model administered 10 to 20 mins prior to and following isoproterenol challenge; conditions: Canis lupus familiaris
[9] = test system: Canis familiaris; test: Inhibition of isoproterenol-induced increase in heart rate in bilaterally vagotomized open chest mongrel dog model at 0.42 mg/kg, iv administered 10 to 20 mins prior to and following isoproterenol challenge; conditions: Canis lupus familiaris
[10] = test system: Canis familiaris; test: Inhibition of isoproterenol-induced decrease in diastolic blood pressure in bilaterally vagotomized open chest mongrel dog model at 0.42 mg/kg, iv administered 10 to 20 mins prior to and following isoproterenol challenge; conditions: Canis lupus familiaris, Artery
[11] = test system: Canis familiaris; test: Inhibition of isoproterenol-induced increase in heart rate in bilaterally vagotomized open chest mongrel dog model at 4.58 mg/kg, iv administered 10 to 20 mins prior to and following isoproterenol challenge; conditions: Canis lupus familiaris
[12] = test system: Canis familiaris; test: Inhibition of isoproterenol-induced decrease in diastolic blood pressure in iv dosed bilaterally vagotomized open chest mongrel dog model administered 10 to 20 mins prior to and following isoproterenol challenge; conditions: Canis lupus familiaris, Artery
[13] = test system: Canis familiaris; test: Inhibition of isoproterenol-induced increase in heart rate in bilaterally vagotomized open chest mongrel dog model at 4.61 mg/kg, iv administered 10 to 20 mins prior to and following isoproterenol challenge; conditions: Canis lupus familiaris
[14] = test system: Canis familiaris; test: Inhibition of isoproterenol-induced decrease in diastolic blood pressure in bilaterally vagotomized open chest mongrel dog model at 0.13 mg/kg, iv administered 10 to 20 mins prior to and following isoproterenol challenge; conditions: Canis lupus familiaris, Artery
[15] = test system: Canis familiaris; test: Inhibition of isoproterenol-induced decrease in diastolic blood pressure in bilaterally vagotomized open chest mongrel dog model at 0.45 mg/kg, iv administered 10 to 20 mins prior to and following isoproterenol challenge; conditions: Canis lupus familiaris, Artery
[16] = test system: Canis familiaris; test: Inhibition of isoproterenol-induced increase in heart rate in bilaterally vagotomized open chest mongrel dog model at 0.13 mg/kg, iv administered 10 to 20 mins prior to and following isoproterenol challenge; conditions: Canis lupus familiaris
[17] = test system: Canis familiaris; test: Inhibition of isoproterenol-induced decrease in diastolic blood pressure in bilaterally vagotomized open chest mongrel dog model at 4.61 mg/kg, iv administered 10 to 20 mins prior to and following isoproterenol challenge; conditions: Canis lupus familiaris, Artery
[18] = test system: Canis familiaris; test: Inhibition of isoproterenol-induced increase in heart rate in bilaterally vagotomized open chest mongrel dog model at 0.45 mg/kg, iv administered 10 to 20 mins prior to and following isoproterenol challenge; conditions: Canis lupus familiaris
[19] = test system: Canis familiaris; test: Inhibition of isoproterenol-induced increase in heart rate in bilaterally vagotomized open chest mongrel dog model at 1.45 mg/kg, iv administered 10 to 20 mins prior to and following isoproterenol challenge; conditions: Canis lupus familiaris
[20] = test system: Canis familiaris; test: Inhibition of isoproterenol-induced decrease in diastolic blood pressure in bilaterally vagotomized open chest mongrel dog model at 0.03 mg/kg, iv administered 10 to 20 mins prior to and following isoproterenol challenge; conditions: Canis lupus familiaris, Artery
[21] = test system: Canis familiaris; test: Inhibition of isoproterenol-induced increase in heart rate in bilaterally vagotomized open chest mongrel dog model at 0.03 mg/kg, iv administered 10 to 20 mins prior to and following isoproterenol challenge; conditions: Canis lupus familiaris
[22] = test system: Canis familiaris; test: Inhibition of isoproterenol-induced decrease in diastolic blood pressure in bilaterally vagotomized open chest mongrel dog model at 1.45 mg/kg, iv administered 10 to 20 mins prior to and following isoproterenol challenge; conditions: Canis lupus familiaris, Artery

| SMILES | inhibition in vivo at 1.42 mg/kg [1] [%] | inhibition in vivo at 4.58 mg/kg [2] [%] | inhibition in vivo at 0.1 mg/kg [3] [%] | inhibition in vivo at 14.58 mg/kg [4] [%] | inhibition in vivo at 14.58 mg/kg [5] [%] | inhibition in vivo at 1.42 mg/kg [6] [%] | inhibition in vivo at 0.1 mg/kg [7] [%] | ED50 [8] [mg/kg] | inhibition in vivo at 0.42 mg/kg [9] [%] | inhibition in vivo at 0.42 mg/kg [10] [%] | inhibition in vivo at 4.58 mg/kg [11] [%] | ED50 [12] [mg/kg] | further results |
| --- | --- | --- | --- | --- | --- | --- | --- | --- | --- | --- | --- | --- | --- |
| CC(C)(C)NCC(O)COc1ncns1 (configuration not stated) | 70 | 50 | 23.5 | 76.5 | 97.5 | 13.5 | 3 | 0.4 | 49.5 | 1 | 91 | 5.7 |  |
| Cc1nsc(OCC(O)CNC(C)(C)C)n1 (configuration not stated) | 39.5 | 55.5 | 15 | 85.3 | 92.3 | 35.5 | 7.7 | 3.6 | 24.2 | 12.8 | 59.8 | 3.5 |  |
| CC(C)(C)NCC(O)COc1nc(-c2ccccc2)ns1 (configuration not stated) | 9.5 | 41.5 | 7 | 100 | 68 | 16.5 | 3.7 | 19.3 | 5.7 | 5.3 | 23.8 | 4.9 |  |
| CC(C)NCC(O)COc1cc(Cl)nc(-c2ccccc2)n1 (configuration not stated) | 18 | 21 | 3 | 19 | 49 | 10.3 | 5 | > 14.6 | 6 | 16.5 | 16.7 | > 14.6 |  |
| CC(C)(C)NCC(O)COc1nnnn1-c1ccccc1 (configuration not stated) | 32.5 | 76.2 | 5.7 | 98.7 | 91 | 44.8 | 6.7 | 3 | 10.5 | 21.2 | 63 | 1.5 |  |
| CC(C)NCC(O)COc1cccc2ccccc12 (configuration not stated) [PROPRANOLOL] |  |  |  |  |  |  |  | 0.09 |  |  |  | 0.06 | inhibition in vivo at 4.61 mg/kg [13]: 98.4%; inhibition in vivo at 0.13 mg/kg [14]: 63.5%; inhibition in vivo at 0.45 mg/kg [15]: 80.8%; inhibition in vivo at 0.13 mg/kg [16]: 62%; inhibition in vivo at 4.61 mg/kg [17]: 96.6%; inhibition in vivo at 0.45 mg/kg [18]: 85.2%; inhibition in vivo at 1.45 mg/kg [19]: 95.8%; inhibition in vivo at 0.03 mg/kg [20]: 40.5%; inhibition in vivo at 0.03 mg/kg [21]: 24.7%; inhibition in vivo at 1.45 mg/kg [22]: 90.7% |
